The values that follow come from patent US4588822A, “Physiologically active substances SS 12538, their preparation and a novel microorganism producing same” (SS Pharmaceutical Co., Ltd., priority 1982, dated 1986).

Converted amounts (≈) assume the structure as drawn. Read-outs that look alike come from different tables or passages of the source. Some results are limits rather than exact numbers.

For data set [1], the system named is Bacillus subtilis ATCC 6633. Briefly: Antibacterial activity (MIC), Bacillus subtilis ATCC 6633. It counts as cell-based. From the text: (§1) Minimum inhibitory concentration (MIC) of the physiologically active substance SS 12538A against various microorganisms are shown in FIG. 2.
(§2) Minimum inhibitory concentration (MIC) of the physiologically active substance SS 12538B against various microorganisms are shown in Table 4 below.
(§3) Minimum inhibitory concentration (MIC) of the physiologically active substance SS 12538C against various microorganisms are shown in Table 6 below.

Data set [2] deals with Microsporum gypseum IFO 8231. Put plainly: Antifungal activity (MIC), Microsporum gypseum IFO 8231. In kind it is cell-based. The following applies: Nannizzia gypsea.
Text: as §1, §2, §3

For data set [3], the system named is Trichophyton mentagrophytes QM 248. Briefly: Antifungal activity (MIC), Trichophyton mentagrophytes QM 248. It counts as cell-based.
Text: as §1, §2, §3

For data set [4], the system named is Micrococcus lysodeikticus IFO 3333. Put plainly: Antibacterial activity (MIC), Micrococcus lysodeikticus IFO 3333. It counts as cell-based. The conditions noted are these: Micrococcus luteus.
Text: as §1, §2, §3

Data set [5] concerns Klebsiella pneumoniae ATCC 10031. Briefly: Antibacterial activity (MIC), Klebsiella pneumoniae ATCC 10031. It counts as cell-based.
Text: as §1, §2, §3

Data set [6] has as its system Aspergillus niger ATCC 9642. Put plainly: Antifungal activity (MIC), Aspergillus niger ATCC 9642. It counts as cell-based.
Text: as §1, §2, §3

The subject of data set [7] is Pseudomonas aeruginosa IFO 13736. Put plainly: Antibacterial activity (MIC), Pseudomonas aeruginosa IFO 13736. In kind it is cell-based.
Text: as §1, §2, §3

The next data set concerns Escherichia coli 0-1. Put plainly: Antibacterial activity (MIC), Escherichia coli 0-1. In kind it is cell-based.
Text: as §1, §2, §3

Data set [8] has as its system Staphylococcus epidermidis ATCC 12228. Briefly: Antibacterial activity (MIC), Staphylococcus epidermidis ATCC 12228. It counts as cell-based.
Text: as §1, §2, §3

The next data set is described as follows: Solubilities in solvents. The conditions noted are these: for Solubility in organic solvents: chloroform, ethyl acetate, acetone, ethyl ether, ethanol, methanol, pyridine, benzene and dimethyl sulfoxide. In kind it is physicochemical.
Data set [9] relates to Staphylococcus aureus ATCC 6538P. Put plainly: Antibacterial activity (MIC), Staphylococcus aureus ATCC 6538P. It counts as cell-based. The following applies: ATCC6538P, read-out: Minimum Inhibitory Concentration MIC.
Text: as §1, §2, §3

In the next data set the test system is Bacillus cereus IID 871. Briefly: Antibacterial activity (MIC), Bacillus cereus IID 871. It counts as cell-based.
Text: as §1, §2, §3

In data set [10] the test system is Saccharomyces cerevisiae ATCC 9763. Briefly: Antifungal activity (MIC), Saccharomyces cerevisiae ATCC 9763. In kind it is cell-based.
Text: as §1, §2, §3

Data set [11] deals with Candida albicans ATCC 10231. Briefly: Antifungal activity (MIC), Candida albicans ATCC 10231. It counts as cell-based.
Text: as §1, §2, §3

For a further data set, the system named is mongrel dogs. Briefly: Vasodilating activity in anesthetized mongrel dogs (coronary blood flow, blood pressure, heart rate after dosing into the vein). It counts as in vivo, dog (mongrel). The following applies: for titer relative to dipyridamol: compared with currently employed dipyridamol; for Blood Pressure Duration / Blood Pressure Reduction / Coronary Blood Flow Duration / Coronary Blood Flow Increase / Heart Rate Reduction: i.v., dog. On the procedure: 4 male mongrel dogs, weighing 15-25 Kg, were provided as laboratory animals and were anesthesized with sodium pentobarbital (30 mg/kg i.v.). Thereafter, the left circumflex coronary artery was exposed under artificial respiration and a probe of an electromagnetic flow meter was attached. A polyethylene cannula was inserted into the left femoral artery.
Test compounds were dissolved in a small amount of dimethyl sulfoxide and diluted with a sterilized physiological saline for injection, followed by dosing it into the vein.
Coronary blood was measured by means of the electromagnetic flow meter and the blood pressure was determined from the polyethylene cannule through a pressure transducer. Also, heart rate was measured by an instantaneous pulse meter from RR intervals of an electrocardiogram. Each parameter was recorded on a polygraph. Changes of these parameters prior to and after administration of each compound were observed.
In accordance with the procedure as used with SS 12538A, the vasodilating activity of SS 12538B was determined.
In the same manner as in the case of SS 12538A, the vasodilating activity of SS 12538C was determined with the results shown in Table 5.

Setting [12] is: ATCC6633, Bacillus subtilis ATCC 6633, read-out: Minimum Inhibitory Concentration MIC.
[13] abbreviates: IFO8231, Microsporum gypseum IFO 8231, read-out: Minimum Inhibitory Concentration MIC.
Setting [14] is: QM248, Trichophyton mentagrophytes QM 248, read-out: Minimum Inhibitory Concentration MIC.
The mark [15] stands for this setting: IFO3333, Micrococcus lysodeikticus IFO 3333, read-out: Minimum Inhibitory Concentration MIC.
Where [16] appears, read: ATCC10031, Klebsiella pneumoniae ATCC 10031, read-out: Minimum Inhibitory Concentration MIC.
Where [17] appears, read: ATCC9642, Aspergillus niger ATCC 9642, read-out: Minimum Inhibitory Concentration MIC.
[18] abbreviates: IFO13736, Pseudomonas aeruginosa IFO 13736, read-out: Minimum Inhibitory Concentration MIC.
Setting [19] is: 01, Escherichia coli 0-1, read-out: Minimum Inhibitory Concentration MIC.
[20] abbreviates: ATCC12228, Staphylococcus epidermidis ATCC 12228, read-out: Minimum Inhibitory Concentration MIC.
Where [21] appears, read: Staphylococcus aureus ATCC 6538P.
The mark [22] stands for this setting: IID871, Bacillus cereus IID 871, read-out: Minimum Inhibitory Concentration MIC.
The mark [23] stands for this setting: ATCC9763, Saccharomyces cerevisiae ATCC 9763, read-out: Minimum Inhibitory Concentration MIC.
Where [24] appears, read: ATCC10231, Candida albicans ATCC 10231, read-out: Minimum Inhibitory Concentration MIC.

Regarding `CC=C(C)C(O)C(C)C=C(C)C=CCC(C)=CCc1oc(OC)cc(=O)c1C` (stereo not drawn) [SS 12538B], the MIC was 50 µg/mL (≈ 129 µM) in [1] (setting [12]); 100 µg/mL (≈ 259 µM) in [2] (setting [13]); 25 µg/mL (≈ 64.7 µM) in [3] (setting [14]); 25 µg/mL (≈ 64.7 µM) in data set [4] (setting [15]); more than 100 µg/mL in [5] (setting [16]); more than 100 µg/mL in data set [6] (setting [17]). Moreover, the MIC is more than 100 µg/mL in data set [7] (setting [18]); more than 100 µg/mL in the data set on Escherichia coli 0-1 (setting [19]); 25 µg/mL (≈ 64.7 µM) in [8] (setting [20]); 25 µg/mL (≈ 64.7 µM) in data set [9] (setting [21]); 50 µg/mL (≈ 129 µM) in the data set on Bacillus cereus IID 871 (setting [22]); more than 100 µg/mL in data set [10] (setting [23]). Besides, the MIC in data set [11] (setting [24]) is more than 100 µg/mL. Moreover, the “Solubility in organic solvents” value in the data set “Solubilities in solvents” is “Soluble”. Moreover, in “Solubilities in solvents”, the Solubility in water result is “sparingly soluble”. In addition, the “titer relative to dipyridamol” value with mongrel dogs is “about 30 times”. The results for the “Blood Pressure Duration” value in the data set with mongrel dogs (dose 3 μg/kg) and in the data set on mongrel dogs (dose 10 μg/kg) were 6 min and 20 min, respectively. Besides, the “Blood Pressure Reduction” value with mongrel dogs (dose 3 μg/kg) amounted to 7.5%; in the data set on mongrel dogs (dose 10 μg/kg), 27.7%. For the same compound, the “Coronary Blood Flow Duration” value is reported as 10 min in the data set on mongrel dogs (dose 3 μg/kg) and 15 min with mongrel dogs (dose 10 μg/kg). The “Coronary Blood Flow Increase” value in the data set on mongrel dogs (dose 3 μg/kg) came out at 103.3%; with mongrel dogs (dose 10 μg/kg), 143.8%. For the same compound, the figures for the “Heart Rate Reduction” value with mongrel dogs (dose 3 μg/kg) and with mongrel dogs (dose 10 μg/kg) were 2.0% and 13.0%, respectively.
With `CC=C(C)C(O)C(C)C=C(C)C=CCC(C)=CCc1oc(OC)c(C)c(=O)c1C` (stereo not drawn) [SS 12538A], the MIC in data set [1] (setting [12]) was more than 100 µg/mL; in data set [2] (setting [13]), less than 6.25 µg/mL; in data set [3] (setting [14]), more than 100 µg/mL; in data set [4] (setting [15]), 25 µg/mL (≈ 62.4 µM); in data set [5] (setting [16]), more than 100 µg/mL; in data set [6] (setting [17]), more than 100 µg/mL. For the same compound, the MIC is more than 100 µg/mL in data set [7] (setting [18]); more than 100 µg/mL in the data set with Escherichia coli 0-1 (setting [19]); less than 6.25 µg/mL in data set [8] (setting [20]); more than 100 µg/mL in [9] (setting [21]); 12.5 µg/mL (≈ 31.2 µM) with Bacillus cereus IID 871 (setting [22]); more than 100 µg/mL in data set [10] (setting [23]). In data set [11] (setting [24]), the MIC is more than 100 µg/mL. Further, the “Solubility in organic solvents” value in “Solubilities in solvents” is reported as “Soluble”. Also, the Solubility in water entry in the data set “Solubilities in solvents” was “sparingly soluble”. Further, the “titer relative to dipyridamol” value in the data set with mongrel dogs was “about 30 times”. The “Blood Pressure Duration” value in the data set on mongrel dogs (dose 3 μg/kg) is listed as 7 min; in the data set on mongrel dogs (dose 10 μg/kg), 10 min; with mongrel dogs (dose 30 μg/kg), 30 min. Moreover, the “Blood Pressure Reduction” value with mongrel dogs (dose 3 μg/kg) was found to be 4.9%; in the data set on mongrel dogs (dose 10 μg/kg) it was 12.6%; in the data set with mongrel dogs (dose 30 μg/kg), 28.7%. Besides, the “Coronary Blood Flow Duration” value with mongrel dogs (dose 3 μg/kg) is 10 min; with mongrel dogs (dose 10 μg/kg) it was 20 min; in the data set with mongrel dogs (dose 30 μg/kg), 40 min. The entries for the “Coronary Blood Flow Increase” value in the data set on mongrel dogs (dose 3 μg/kg), in the data set on mongrel dogs (dose 10 μg/kg) and in the data set with mongrel dogs (dose 30 μg/kg) were 17.1%, 168.6% and 441.3%, respectively. Besides, the “Heart Rate Reduction” value with mongrel dogs (dose 3 μg/kg) was determined as 2.3%; with mongrel dogs (dose 10 μg/kg), 2.9%; in the data set with mongrel dogs (dose 30 μg/kg), 1.8%.
Turning to `OCCN(CCO)c1nc(N2CCCCC2)c2nc(N(CCO)CCO)nc(N3CCCCC3)c2n1` [Dipyridamol, dipyridamol, reference compound], in the data set with mongrel dogs (dose 300 μg/kg), the “Blood Pressure Duration” value is 16 min, the “Blood Pressure Reduction” value is 13.2%, the “Coronary Blood Flow Duration” value turned out to be 20 min and the “Coronary Blood Flow Increase” value amounted to 135.7%. Also, the “Heart Rate Reduction” value in the data set on mongrel dogs (dose 300 μg/kg) turned out to be 0%.
With `CC=C(C)C(O)C(C)C=C(C)C=CCC(C)=CCc1oc(OC)c(CC)c(=O)c1C` (stereo not drawn) [SS 12538C], the MIC in [1] (Bacillus subtilis, ATCC6633, read-out: Minimum Inhibitory Concentration MIC) is more than 100 µg/mL; in data set [2] (IFO8231, read-out: Minimum Inhibitory Concentration MIC) it was more than 100 µg/mL; in data set [3] (Trichophyton mentagrophytes, QM248, read-out: Minimum Inhibitory Concentration MIC), 50 µg/mL (≈ 121 µM); in [4] (IFO3333, read-out: Minimum Inhibitory Concentration MIC), 12.5 µg/mL (≈ 30.2 µM); in data set [5] (Klebsiella pneumoniae, ATCC10031, read-out: Minimum Inhibitory Concentration MIC), more than 100 µg/mL; in [6] (Aspergillus niger, ATCC9642, read-out: Minimum Inhibitory Concentration MIC) it was more than 100 µg/mL. In addition, the MIC in data set [7] (Pseudomonas aeruginosa, IFO13736, read-out: Minimum Inhibitory Concentration MIC) was more than 100 µg/mL; with Escherichia coli 0-1 (Escherichia coli, 01, read-out: Minimum Inhibitory Concentration MIC), more than 100 µg/mL; in data set [8] (Staphylococcus epidermidis, ATCC12228, read-out: Minimum Inhibitory Concentration MIC), 25 µg/mL (≈ 60.3 µM); in data set [9] (Staphylococcus aureus) it was 100 µg/mL (≈ 241 µM); with Bacillus cereus IID 871 (Bacillus cereus, IID871, read-out: Minimum Inhibitory Concentration MIC), 25 µg/mL (≈ 60.3 µM); in data set [10] (Saccharomyces cerevisiae, ATCC9763, read-out: Minimum Inhibitory Concentration MIC), more than 100 µg/mL. Besides, the MIC in data set [11] (Candida albicans, ATCC10231, read-out: Minimum Inhibitory Concentration MIC) is more than 100 µg/mL. The “Solubility in organic solvents” value in “Solubilities in solvents” is given as “Soluble”. In addition, the Solubility in water result in the data set “Solubilities in solvents” is given as “sparingly soluble”. Besides, the “titer relative to dipyridamol” value in the data set with mongrel dogs is listed as “about 3 times”. The “Blood Pressure Duration” value in the data set with mongrel dogs (dose 10 μg/kg) came to 0 min; with mongrel dogs (dose 30 μg/kg), 10 min; with mongrel dogs (dose 100 μg/kg), 15 min. The “Blood Pressure Reduction” value with mongrel dogs (dose 10 μg/kg) was found to be 0%; with mongrel dogs (dose 30 μg/kg), 2.9%; with mongrel dogs (dose 100 μg/kg), 8.5%. The “Coronary Blood Flow Duration” value in the data set with mongrel dogs (dose 10 μg/kg) is given as 5 min; in the data set on mongrel dogs (dose 30 μg/kg), 10 min; in the data set on mongrel dogs (dose 100 μg/kg) it was 15 min. The entries for the “Coronary Blood Flow Increase” value in the data set on mongrel dogs (dose 10 μg/kg), in the data set on mongrel dogs (dose 30 μg/kg) and in the data set with mongrel dogs (dose 100 μg/kg) were 30.0%, 60.0% and 130.0%, respectively. The “Heart Rate Reduction” value came out at 0% with mongrel dogs (dose 10 μg/kg), 0% in the data set on mongrel dogs (dose 30 μg/kg) and 10.1% in the data set on mongrel dogs (dose 100 μg/kg).
